Values quoted from earlier work, collected in US20190365664A1, “CARYOPHYLLENE FORMULATIONS, APPARATUSES, AND METHODS” (Biotech Institute, LLC, priority 2016, published 2019).

Settings: other studies (National Geographic News, Jun. 24, 2008)

C=C1CC/C=C(\C)CC[C@@H]2[C@@H]1CC2(C)C [BCP, 4,11,11-Trimethyl-8-methylenebicyclo[7.2.0]undec-4-ene]
psychoactive effects: does not have psychoactive effects
